{
  "source": "patent EP1276895B1",
  "about": "“METHOD FOR THE IDENTIFICATION OF ACTIVE SITE PROTEASE INACTIVATORS” (THE UNIVERSITY OF GEORGIA RESEARCH FOUNDATION, INC., priority 2000, dated 2001)",
  "key": {"[1]": {"test_system": "purified Taenia solium cysteine protease", "assay": "Competitor assay of low Vmax substrates (vehicles) against high Vmax substrate cocktails (Step III), purified protease", "type": "biochemical", "settings": "robustness of inhibition"}, "T. crassiceps cysts [2]": {"test_system": "T. crassiceps cysts", "assay": "Therapeutic protection study in BALB/c mice", "type": "in vivo, Taenia crassiceps", "settings": "inhibitor treatment began two weeks after infection with T. crassiceps cysts", "text": "Mice in all groups survived without noticeable side effects (e.g., coat condition, tail dragging or paresis, etc)."}, "T. crassiceps cysts [3]": {"test_system": "T. crassiceps cysts", "type": "in vivo, Taenia crassiceps", "settings": "for Percent protection, long-term: BALB/c mice, 5 mice/group, intraperitoneal, treated every day for 30 days post-challenge, left untreated for 5 months, reduction of total cyst number versus controls; for side effects in treated mice, long-term: in vivo"}, "[4]": {"test_system": "normal BALB/c mouse splenocytes", "assay": "Mouse splenocyte proliferation (3H-thymidine incorporation) with inhibitor alone or inhibitor and Con-A", "type": "cell-based", "settings": "for proliferative response of splenocytes (3H-thymidine incorporation): inhibitor alone; for responsiveness of splenocytes to Con-A: inhibitor and Con-A; for toxicity to normal BALB/c mouse splenocytes in vitro: preliminary results"}, "Taenia crassiceps cysts": {"test_system": "Taenia crassiceps cysts", "assay": "Short-term prophylactic protection of BALB/c mice from cysticercosis infection", "type": "in vivo", "settings": "for % Prophylactic protection of BALB/c mice: pre-injected two days, 10 T. crassiceps cysts/mouse, dosed daily for four weeks, cysts counted after one month, versus untreated controls"}, "[5]": {"test_system": "purified Taenia solium cysteine protease", "assay": "Inhibition assay of protease inactivators against the high Vmax cocktail, EC100 and Ki ranking (Step VII B)", "type": "biochemical", "settings": "for ranking of protease inactivators by EC100: dilution study, nanomolar levels; for % Inhibition of T. solium CP in vitro: concentration not stated in Table 4; for Ki of protease inactivator: nonlinear fitting and Dixon plot, values not reported", "text": "Once the protease inactivators were synthesized in the organic laboratory, they were to be tested for the lowest efficacious concentrations at which they induced 100% inhibition of the target protease (EC100). The top percent cocktail that was employed in the final vehicle selection step of Step III was employed as the source of competition for the inhibitors. In this case, this was the […] which was comprised of Z-FR-AFC, Z-FAR-AFC, Z-AP-AFC, Z-AAK-AFC, and Z-VLR-AFC. The final result would be a ranking of transition state candidate protease inactivators with a high ranking directly correlating to a low EC100 value. The following steps describe the assay:\nStep A: Initial Screening. To set up the test control, each protease inactivator was first incubated with the […] (which provided the final differentiation of vehicles in Step III). To begin with, the protease inactivator was incubated at a concentration of 3 X 10^-9M in 500 ul of assay buffer ([…], pH 4.9 supplemented with 10mM L-cysteine). This concentration was determined, after a series of inhibitor dilutions identified, to be the best inhibitor concentration at which a differentiation in inhibitor potential could be noted. Next, a concentration equal to 4 X 10^-5M for each of the individual cocktail components, was added to the mix. The components were allowed to equilibrate for a period of 30 minutes. Finally, active purified enzyme was added to the tubes at a concentration which was always at least 50 times less than the concentration of the lowest concentration in the mix (to provide saturating conditions.) This concentration varied from purification to purification and the amount added depended upon the yield and specific activity of the purified protease.\nPositive controls were set up similarly as described for test controls, except that solvent was added in substitution for the protease inactivator (in a volume equal to the […] volume addition). All of the protease inactivators could be dissolved in dimethylsulfoxide (DMSO), and therefore, this was the solvent of choice. Negative controls were set up by adding the protease inactivator and the cocktail substrates in a tube, without the protease. All potential non-proteolytic induced liberation of AFC was therefore controlled for in this tube (a feature which also insured stability of the AFC substrates, since these substrates will freely liberate AFC when unstable).\nAll controls were set up in triplicate, and experiments repeated a minimum of five times. The assays were incubated at 37°C, overnight. Percent inhibition was calculated as: % Inhibition = ((AFC positive for ʺSIʺ-AFC negative for ʺSIʺ)-(AFC test-AFC negative for ʺSIʺ))/(AFC positive for ʺSIʺ-AFC negative for ʺSIʺ) × 100 [formula]\nBecause of this, a dilution study was required in order to determine a viable ranking. Thus, the concentration of each of the protease inactivators was lowered with a dose response setup until the most efficacious concentration for 100% inhibition (EC100) could be determined. […] The final result of the assay was a ranked candidate list of protease inactivators. A lower EC100 was attributable to a higher ranking and vice-versa.\nIn order to determine Ki, all of the high Vmax cocktail substrates were employed for Ki determination (since Ki of the inhibitor for the enzyme is the same regardless of the substrate). To insure the highest accuracy, Ki was to be determined upon a minimum of at least three of the high Kcat substrates. Nonlinear fitting and the Dixon plot were both employed to determine Ki of the top ranked protease inactivators. A further plot was constructed using either Eadie Hofstee as well as Hanes to determine the mode of inhibition. These methods were used in order to determine the type of inhibition."}},
  "note": "Residues, ends and D or L forms follow the SMILES beside them. *: point of attachment. AFC = O=c1cc(C(F)(F)F)c2ccc(N*)cc2o1; Cbz = O=C(OCc1ccccc1)*; CH2F = FC*",
  "data": [
    {"compound": "CC(C)C[C@H](NC(=O)OCc1ccccc1)C(=O)N[C@@H](CC(C)C)C(=O)N[C@@H](CC(C)C)C(=O)Nc1ccc2c(C(F)(F)F)cc(=O)oc2c1", "note": "[Z-LLL-AFC, Z-Leu-Leu-Leu-AFC] (Cbz-Leu-Leu-Leu-{AFC})", "values": [
      {"measurement": "percentage drop in inhibition between the 1.4% and the 7.4% cocktail", "setting": "[1]", "value": 25, "unit": "%"}
    ]},
    {"compound": "CC(C)C[C@H](NC(=O)[C@H](CC(C)C)NC(=O)[C@H](CC(C)C)NC(=O)OCc1ccccc1)C(=O)CF", "note": "[Z-LLL-FMK, Z-Leu-Leu-Leu-fluoromethylketone] (Cbz-Leu-Leu-Leu-CH2F)", "values": [
      {"measurement": "% Therapeutic protection of BALB/c mice", "setting": "T. crassiceps cysts [2]", "value": 60, "unit": "%"},
      {"measurement": "Percent protection, long-term", "setting": "T. crassiceps cysts [3]", "value": 80, "unit": "%"},
      {"measurement": "side effects in treated mice, long-term", "setting": "T. crassiceps cysts [3]", "value": "no side effects were noted"},
      {"measurement": "proliferative response of splenocytes (3H-thymidine incorporation)", "setting": "[4]", "value": "do not induce a proliferative response"},
      {"measurement": "responsiveness of splenocytes to Con-A", "setting": "[4]", "value": "unaffected"},
      {"measurement": "responsiveness of splenocytes to Con-A", "setting": "[4]; listed as LLL-FMK", "value": "do not affect the responsiveness"},
      {"measurement": "toxicity to normal BALB/c mouse splenocytes in vitro", "setting": "[4]", "value": "nontoxic"},
      {"measurement": "% Prophylactic protection of BALB/c mice", "setting": "Taenia crassiceps cysts", "value": 100, "unit": "%"},
      {"measurement": "% Prophylactic protection of BALB/c mice", "setting": "Taenia crassiceps cysts; listed as Leucine-Leucine-Leucine-Fluoromethylketone", "value": 100, "unit": "%"},
      {"measurement": "ranking of protease inactivators by EC100", "setting": "[5]", "value": "top inhibitors"},
      {"measurement": "% Inhibition of T. solium CP in vitro", "setting": "[5]", "value": 100, "unit": "%"},
      {"measurement": "Ki of protease inactivator", "setting": "[5]", "value": "lowest Ki values"}
    ]},
    {"compound": "CC(C)C[C@H](NC(=O)OCc1ccccc1)C(=O)N[C@@H](CC(C)C)C(=O)N[C@@H](Cc1ccc(O)cc1)C(=O)CF", "note": "[Z-LLY-FMK, Z-Leu-Leu-Tyr-FMK] (Cbz-Leu-Leu-Tyr-CH2F)", "values": [
      {"measurement": "Percent protection, long-term", "setting": "T. crassiceps cysts [3]", "value": 95, "unit": "%"},
      {"measurement": "side effects in treated mice, long-term", "setting": "T. crassiceps cysts [3]", "value": "no side effects were noted"},
      {"measurement": "proliferative response of splenocytes (3H-thymidine incorporation)", "setting": "[4]", "value": "do not induce a proliferative response"},
      {"measurement": "responsiveness of splenocytes to Con-A", "setting": "[4]", "value": "unaffected"},
      {"measurement": "responsiveness of splenocytes to Con-A", "setting": "[4]; listed as LLY-FMK", "value": "do not affect the responsiveness"},
      {"measurement": "toxicity to normal BALB/c mouse splenocytes in vitro", "setting": "[4]", "value": "nontoxic"},
      {"measurement": "protection from cysticercosis infection, subsequent repeat of the prophylactic experiment", "setting": "Taenia crassiceps cysts; identical prophylactic experiment repeated", "value": "75%-90%"},
      {"measurement": "% Prophylactic protection of BALB/c mice", "setting": "Taenia crassiceps cysts", "value": "85-97%"},
      {"measurement": "% Prophylactic protection of BALB/c mice", "setting": "Taenia crassiceps cysts; listed as Leucine-Leucine-Tyrosine-Fluoromethylketone", "value": "85-97%"},
      {"measurement": "side effects / inhibitor toxicity in treated mice, short-term", "setting": "Taenia crassiceps cysts; visual inspection (coat condition, tail dragging or paresis)", "value": "no mice showed effects of inhibitor toxicity"},
      {"measurement": "ranking of protease inactivators by EC100", "setting": "[5]", "value": "top inhibitors"},
      {"measurement": "% Inhibition of T. solium CP in vitro", "setting": "[5]", "value": 97, "unit": "%"},
      {"measurement": "Ki of protease inactivator", "setting": "[5]", "value": "lowest Ki values"}
    ]}
  ]
}
